Experimental findings from ChEMBL document CHEMBL2401638, “Design and synthesis of biquinolone-isoniazid hybrids as a new class of antitubercular and antimicrobial agents” (Eur J Med Chem, 2013) are described below.

One assay has as its system Pseudomonas aeruginosa. Nature of the assay: Antibacterial activity against Pseudomonas aeruginosa MTCC 1688 assessed as growth inhibition by broth microdilution method. Format: functional.
Another assay has as its system Candida albicans. Nature of the assay: Antifungal activity against Candida albicans MTCC 227 assessed as growth inhibition by broth microdilution method. Type of assay: functional.
In a further assay the test system is Salmonella typhi. The assay is described as follows: Antibacterial activity against Salmonella typhi MTCC 98 assessed as growth inhibition by broth microdilution method. Type of assay: functional, Salmonella enterica subsp. enterica serovar Typhi. To be noted: Salmonella enterica.
For another assay, the system named is Escherichia coli. Nature of the assay: Antibacterial activity against Escherichia coli MTCC 443 assessed as growth inhibition by broth microdilution method. Type of assay: functional.
Assay [1] relates to Mycobacterium tuberculosis. The assay is described as follows: Antituberculosis activity against Mycobacterium tuberculosis H37Rv assessed as growth inhibition at 250 ug/ml after 12 to 28 days by Lowenstein-Jensen method relative to control. Type of assay: functional. The note with it: read-out: GI.
The subject of another assay is Bacillus subtilis. Nature of the assay: Antibacterial activity against Bacillus subtilis MTCC 441 assessed as growth inhibition by broth microdilution method. Type of assay: functional.
The next assay concerns Clostridium tetani. Nature of the assay: Antibacterial activity against Clostridium tetani MTCC 449 assessed as growth inhibition by broth microdilution method. Format: functional.
A further assay deals with Staphylococcus aureus. Nature of the assay: Antibacterial activity against Staphylococcus aureus MTCC 96 assessed as growth inhibition by broth microdilution method. Type of assay: functional.
The subject of a further assay is Trichophyton rubrum. Nature of the assay: Antifungal activity against Trichophyton rubrum MTCC 296 assessed as growth inhibition by broth microdilution method. Type of assay: functional.

On to `C=CCn1c(=O)c(C2C(C(=O)OC(C)C)=C(N)N(NC(=O)c3ccncc3)C3=C2C(=O)CCC3)cc2cc(OC)ccc21` (configuration not stated), for which the minimal inhibitory concentration (MIC) was found to be 250 µg/mL with Pseudomonas aeruginosa; 250 µg/mL with Candida albicans; 250 µg/mL with Salmonella typhi; 200 µg/mL with Escherichia coli; 250 µg/mL with Bacillus subtilis; 250 µg/mL in the assay with Clostridium tetani. The values for the MIC with Staphylococcus aureus and with Trichophyton rubrum were 250 µg/mL and 1000 µg/mL, respectively. In addition, the inhibition of growth at 250 µg/mL in assay [1] stood at 27%.

For `C=CCn1c(=O)c(C2C(C(=O)OC(C)C)=C(N)N(NC(=O)c3ccncc3)C3=C2C(=O)CC(C)(C)C3)cc2ccccc21` (configuration not stated), the MIC with Pseudomonas aeruginosa came to 250 µg/mL; with Candida albicans, 1000 µg/mL; with Salmonella typhi, 25 µg/mL; with Escherichia coli, 200 µg/mL; in the assay with Bacillus subtilis it was 500 µg/mL; in the assay with Clostridium tetani it was 500 µg/mL. For the same molecule, the MIC in the assay on Staphylococcus aureus amounted to 500 µg/mL; with Trichophyton rubrum it was 250 µg/mL. Besides, the inhibition of growth at 250 µg/mL in [1] was 78%.

Turning to `C=CCn1c(=O)c(C2C(C(=O)OCC)=C(N)N(NC(=O)c3ccncc3)C3=C2C(=O)CCC3)cc2cc(Cl)ccc21` (configuration not stated), the minimum inhibitory concentration (MIC) in the assay with Pseudomonas aeruginosa was 500 µg/mL; with Candida albicans, 250 µg/mL; in the assay on Salmonella typhi it was 250 µg/mL; with Escherichia coli it was 100 µg/mL; with Bacillus subtilis it was 250 µg/mL; in the assay with Clostridium tetani, 125 µg/mL. Besides, the MIC in the assay with Staphylococcus aureus worked out at 100 µg/mL; in the assay with Trichophyton rubrum, 1000 µg/mL. Further, in assay [1], the inhibition of growth at 250 µg/mL turned out to be 87%.

With `C=CCn1c(=O)c(C2C(C(=O)OC(C)C)=C(N)N(NC(=O)c3ccncc3)C3=C2C(=O)CCC3)cc2ccccc21` (configuration not stated), the MIC in the assay on Pseudomonas aeruginosa stood at 500 µg/mL; in the assay with Candida albicans, 1000 µg/mL; in the assay on Salmonella typhi it was 125 µg/mL; in the assay with Escherichia coli it was 100 µg/mL; with Bacillus subtilis it was 250 µg/mL; in the assay on Clostridium tetani it was 500 µg/mL. Further, the MIC with Staphylococcus aureus and in the assay with Trichophyton rubrum was 500 µg/mL throughout. Further, the inhibition of growth at 250 µg/mL in [1] was 65%.

In the case of `C=CCn1c(=O)c(C2C(C(=O)OC)=C(N)N(NC(=O)c3ccncc3)C3=C2C(=O)CCC3)cc2cc(C)ccc21` (configuration not stated), the MIC in the assay on Pseudomonas aeruginosa was determined as 100 µg/mL; in the assay on Candida albicans it was 500 µg/mL; in the assay with Salmonella typhi, 250 µg/mL; in the assay with Escherichia coli it was 500 µg/mL; in the assay on Bacillus subtilis, 62.5 µg/mL; in the assay on Clostridium tetani it was 500 µg/mL. For the same molecule, the MIC in the assay on Staphylococcus aureus was 500 µg/mL; in the assay with Trichophyton rubrum it was greater than 1000 µg/mL. Besides, in assay [1], the inhibition of growth at 250 µg/mL was 58%.

With `C=CCn1c(=O)c(C2C(C(=O)OCC)=C(N)N(NC(=O)c3ccncc3)C3=C2C(=O)CCC3)cc2cc(OC)ccc21` (configuration not stated), the MIC in the assay with Pseudomonas aeruginosa was found to be 200 µg/mL; in the assay on Candida albicans, 250 µg/mL; with Salmonella typhi it was 500 µg/mL; with Escherichia coli it was 250 µg/mL; in the assay with Bacillus subtilis, 200 µg/mL; in the assay with Clostridium tetani, 100 µg/mL. The MIC in the assay with Staphylococcus aureus worked out at 125 µg/mL; in the assay on Trichophyton rubrum, 1000 µg/mL. Further, the inhibition of growth at 250 µg/mL in assay [1] amounted to 54%.

Regarding `C=CCn1c(=O)c(C2C(C(=O)OC)=C(N)N(NC(=O)c3ccncc3)C3=C2C(=O)CC(C)(C)C3)cc2cc(Cl)ccc21` (configuration not stated), the MIC was 500 µg/mL in the assay with Pseudomonas aeruginosa; 500 µg/mL with Candida albicans; 200 µg/mL in the assay with Salmonella typhi; 250 µg/mL in the assay on Escherichia coli; 500 µg/mL with Bacillus subtilis; 100 µg/mL in the assay with Clostridium tetani. The MIC turned out to be 200 µg/mL in the assay with Staphylococcus aureus and 1000 µg/mL in the assay with Trichophyton rubrum. In addition, the inhibition of growth at 250 µg/mL in assay [1] stood at 87%.

Turning to `C=CCn1c(=O)c(C2C(C(=O)OC)=C(N)N(NC(=O)c3ccncc3)C3=C2C(=O)CCC3)cc2cc(Cl)ccc21` (configuration not stated), the MIC in the assay on Pseudomonas aeruginosa is 500 µg/mL; with Candida albicans, 1000 µg/mL; in the assay with Salmonella typhi, 200 µg/mL; in the assay on Escherichia coli it was 250 µg/mL; in the assay on Bacillus subtilis, 500 µg/mL; in the assay on Clostridium tetani, 200 µg/mL. Also, the values for the MIC with Staphylococcus aureus and with Trichophyton rubrum were 250 µg/mL and 1000 µg/mL, respectively. The inhibition of growth at 250 µg/mL in assay [1] was determined as 89%.
